Data as given in US11596622B2, “Mazindol treatment for heroin dependence and substance use disorder” (NLS Pharmaceutics AG, priority 2017, dated 2023).

Columns and labels:
μ (MOP) (h) = molecular target: T1, μ (MOP) (h) (Homo sapiens, UniProt P35372); assay: Radioligand binding, μ opioid receptor (Eurofins CEREP)
T1 construct: Eurofins CEREP
Description: (§1) Table A discloses mazindol and Met tested at […] and the compound binding calculated as a percent inhibition of the binding of a radioactively labeled ligand specific for each target (Eurofins CEREP, France).
(§2) An inhibition or stimulation of more than 50% is considered a significant effect of the test compounds. Fifty percent is a common cut-off for further investigation (i.e. determination of IC50 or EC50 values from concentration-response curves). Tables B and C display the binding profiles for Mazindol and Met.
(§3) The results are expressed as a percent of control specific binding obtained in the presence of the test compounds:
(§4) [formula] and as a percent inhibition of control specific binding obtained in the presence of the test compounds: […]

k (KOP) = molecular target: T2, k (KOP) (Rattus norvegicus, UniProt P34975); assay: Radioligand binding, κ opioid receptor (Eurofins CEREP)
T2 construct: Eurofins CEREP
Description: as §1, §2, §3, §4

H1(h) = molecular target: T3, H1(h) (Homo sapiens, UniProt P35367); assay: Radioligand binding, H1 (Eurofins CEREP); conditions: 1.0 × 10^−05 M; antagonist radioligand
T3 construct: Eurofins CEREP
Description: as §1, §2, §3, §4

[1] = molecular target: T4, Norepinephrine transporter (h) (Homo sapiens, UniProt P23975); assay: Radioligand binding, norepinephrine transporter (Eurofins CEREP); conditions: 1.0 × 10^−05 M; antagonist radioligand
T4 construct: Eurofins CEREP
Description: as §1, §2, §3, §4

5-HT transporter(h) = molecular target: T5, 5-HT transporter(h) (Homo sapiens, UniProt P31645); assay: Radioligand binding, 5-HT transporter (Eurofins CEREP); conditions: 1.0 × 10^−05 M; antagonist radioligand
T5 construct: Eurofins CEREP
Description: as §1
(§5) An inhibition or stimulation of more than 50% is considered a significant effect of the test compounds. Fifty percent is a common cut-off for further investigation (i.e. determination of IC50 or EC50 values from concentration-response curves).
as §3, §4

Dopamine transporter(h) = molecular target: T6, Dopamine transporter(h) (Homo sapiens, UniProt Q01959); assay: Radioligand binding, dopamine transporter (Eurofins CEREP); conditions: 1.0 × 10^−05 M; antagonist radioligand
T6 construct: Eurofins CEREP
Description: as §1, §5, §3, §4

M1(h) = molecular target: T7, M1(h) (Homo sapiens, UniProt P11229); assay: Radioligand binding, M1 (Eurofins CEREP); conditions: 1.0 × 10^−05 M; antagonist radioligand
T7 construct: Eurofins CEREP
T7 sequence (P11229 1-460): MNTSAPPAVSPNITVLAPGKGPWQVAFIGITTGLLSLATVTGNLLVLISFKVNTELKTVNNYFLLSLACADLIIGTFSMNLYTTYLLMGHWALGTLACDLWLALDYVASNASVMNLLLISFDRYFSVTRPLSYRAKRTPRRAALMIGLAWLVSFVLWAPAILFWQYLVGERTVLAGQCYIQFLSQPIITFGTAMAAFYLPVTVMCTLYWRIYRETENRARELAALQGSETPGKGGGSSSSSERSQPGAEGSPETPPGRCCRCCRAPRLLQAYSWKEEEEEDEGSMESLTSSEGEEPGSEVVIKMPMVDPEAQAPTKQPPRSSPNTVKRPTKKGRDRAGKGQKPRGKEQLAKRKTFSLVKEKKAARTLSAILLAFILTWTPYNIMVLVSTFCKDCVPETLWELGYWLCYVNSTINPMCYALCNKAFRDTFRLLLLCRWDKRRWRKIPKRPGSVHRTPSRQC
Description: as §1, §2, §3, §4

5-HT1A(h) = molecular target: T8, 5-HT1A(h) (Homo sapiens, UniProt P08908); assay: Radioligand binding, 5-HT1A (Eurofins CEREP); conditions: 1.0 × 10^−05 M; agonist radioligand
T8 construct: Eurofins CEREP
T8 sequence (P08908 1-422): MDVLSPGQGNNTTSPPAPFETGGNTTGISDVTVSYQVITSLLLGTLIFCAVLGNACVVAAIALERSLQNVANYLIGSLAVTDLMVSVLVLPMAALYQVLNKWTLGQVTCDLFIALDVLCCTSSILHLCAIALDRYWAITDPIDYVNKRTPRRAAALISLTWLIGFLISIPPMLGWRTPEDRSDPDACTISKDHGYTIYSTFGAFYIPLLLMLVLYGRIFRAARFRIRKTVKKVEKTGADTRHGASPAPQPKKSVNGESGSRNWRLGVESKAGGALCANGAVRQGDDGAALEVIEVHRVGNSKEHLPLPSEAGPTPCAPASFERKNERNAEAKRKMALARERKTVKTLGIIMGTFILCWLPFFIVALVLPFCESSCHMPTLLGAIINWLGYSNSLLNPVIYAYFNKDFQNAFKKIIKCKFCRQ
Description: as §1, §5, §3, §4

[2] = 1.0 × 10^−05 M, agonist radioligand

T1 sequence (P35372 whole entry): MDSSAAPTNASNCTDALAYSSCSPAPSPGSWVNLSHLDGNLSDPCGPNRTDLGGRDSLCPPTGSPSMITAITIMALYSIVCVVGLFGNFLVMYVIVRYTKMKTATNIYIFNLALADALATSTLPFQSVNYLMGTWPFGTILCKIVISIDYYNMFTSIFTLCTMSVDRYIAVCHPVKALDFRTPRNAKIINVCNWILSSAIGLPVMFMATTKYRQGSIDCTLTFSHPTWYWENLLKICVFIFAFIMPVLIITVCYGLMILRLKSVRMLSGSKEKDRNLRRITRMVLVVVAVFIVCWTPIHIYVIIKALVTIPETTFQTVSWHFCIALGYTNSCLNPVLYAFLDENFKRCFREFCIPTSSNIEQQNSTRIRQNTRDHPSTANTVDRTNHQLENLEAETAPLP
T2 sequence (P34975 whole entry): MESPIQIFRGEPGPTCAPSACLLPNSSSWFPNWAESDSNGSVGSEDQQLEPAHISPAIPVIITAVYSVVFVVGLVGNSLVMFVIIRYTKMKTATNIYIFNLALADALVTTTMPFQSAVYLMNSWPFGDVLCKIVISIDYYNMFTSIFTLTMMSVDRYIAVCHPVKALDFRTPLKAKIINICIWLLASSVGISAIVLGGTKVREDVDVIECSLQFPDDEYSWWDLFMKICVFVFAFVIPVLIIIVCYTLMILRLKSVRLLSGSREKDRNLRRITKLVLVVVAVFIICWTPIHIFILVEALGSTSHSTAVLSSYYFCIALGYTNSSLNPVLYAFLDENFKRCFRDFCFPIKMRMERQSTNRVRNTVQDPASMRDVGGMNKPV
T4 sequence (P23975 whole entry): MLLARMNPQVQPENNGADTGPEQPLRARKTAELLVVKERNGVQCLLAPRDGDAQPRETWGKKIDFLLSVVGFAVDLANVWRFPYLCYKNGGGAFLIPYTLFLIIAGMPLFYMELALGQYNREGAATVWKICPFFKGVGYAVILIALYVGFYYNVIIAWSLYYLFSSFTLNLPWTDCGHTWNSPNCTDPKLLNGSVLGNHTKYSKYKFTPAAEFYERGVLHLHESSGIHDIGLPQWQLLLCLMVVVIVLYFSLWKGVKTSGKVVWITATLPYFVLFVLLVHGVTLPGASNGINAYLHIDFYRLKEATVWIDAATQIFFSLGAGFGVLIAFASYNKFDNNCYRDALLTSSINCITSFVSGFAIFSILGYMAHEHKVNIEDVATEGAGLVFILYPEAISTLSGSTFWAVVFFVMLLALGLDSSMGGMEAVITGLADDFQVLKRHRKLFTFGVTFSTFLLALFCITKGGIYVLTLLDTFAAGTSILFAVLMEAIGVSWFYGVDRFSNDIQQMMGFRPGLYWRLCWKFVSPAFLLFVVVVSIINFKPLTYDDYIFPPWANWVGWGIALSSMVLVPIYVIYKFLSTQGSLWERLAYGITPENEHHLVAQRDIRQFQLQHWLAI
T3 sequence (P35367 whole entry): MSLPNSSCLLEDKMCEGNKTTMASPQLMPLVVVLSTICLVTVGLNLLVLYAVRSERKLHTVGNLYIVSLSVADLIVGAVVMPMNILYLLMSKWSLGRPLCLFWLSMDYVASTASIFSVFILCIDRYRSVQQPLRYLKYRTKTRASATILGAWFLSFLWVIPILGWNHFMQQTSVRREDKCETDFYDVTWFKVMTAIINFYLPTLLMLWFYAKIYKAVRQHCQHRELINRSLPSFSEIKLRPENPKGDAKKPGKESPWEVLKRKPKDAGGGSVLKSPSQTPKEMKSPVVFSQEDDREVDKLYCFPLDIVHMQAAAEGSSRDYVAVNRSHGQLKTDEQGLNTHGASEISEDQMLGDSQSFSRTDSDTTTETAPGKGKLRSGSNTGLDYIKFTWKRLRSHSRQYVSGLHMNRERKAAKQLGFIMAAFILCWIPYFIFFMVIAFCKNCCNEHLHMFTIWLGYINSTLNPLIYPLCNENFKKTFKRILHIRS
T5 sequence (P31645 whole entry): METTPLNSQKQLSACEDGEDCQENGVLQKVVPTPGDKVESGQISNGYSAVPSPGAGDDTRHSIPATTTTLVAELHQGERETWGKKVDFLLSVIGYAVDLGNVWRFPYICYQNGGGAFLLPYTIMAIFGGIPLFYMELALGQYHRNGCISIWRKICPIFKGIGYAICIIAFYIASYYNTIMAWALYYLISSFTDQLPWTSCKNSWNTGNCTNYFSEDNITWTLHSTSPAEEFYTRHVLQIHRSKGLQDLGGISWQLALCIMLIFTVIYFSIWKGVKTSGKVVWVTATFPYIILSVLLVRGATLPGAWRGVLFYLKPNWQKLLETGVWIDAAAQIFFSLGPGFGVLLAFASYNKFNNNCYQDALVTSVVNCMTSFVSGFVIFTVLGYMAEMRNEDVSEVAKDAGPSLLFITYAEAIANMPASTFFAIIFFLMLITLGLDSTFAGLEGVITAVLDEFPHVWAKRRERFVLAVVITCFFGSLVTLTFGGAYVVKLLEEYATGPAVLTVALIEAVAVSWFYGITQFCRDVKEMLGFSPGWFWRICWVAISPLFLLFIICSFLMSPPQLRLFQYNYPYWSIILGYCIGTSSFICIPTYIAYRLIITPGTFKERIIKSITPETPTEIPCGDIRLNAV
T6 sequence (Q01959 whole entry): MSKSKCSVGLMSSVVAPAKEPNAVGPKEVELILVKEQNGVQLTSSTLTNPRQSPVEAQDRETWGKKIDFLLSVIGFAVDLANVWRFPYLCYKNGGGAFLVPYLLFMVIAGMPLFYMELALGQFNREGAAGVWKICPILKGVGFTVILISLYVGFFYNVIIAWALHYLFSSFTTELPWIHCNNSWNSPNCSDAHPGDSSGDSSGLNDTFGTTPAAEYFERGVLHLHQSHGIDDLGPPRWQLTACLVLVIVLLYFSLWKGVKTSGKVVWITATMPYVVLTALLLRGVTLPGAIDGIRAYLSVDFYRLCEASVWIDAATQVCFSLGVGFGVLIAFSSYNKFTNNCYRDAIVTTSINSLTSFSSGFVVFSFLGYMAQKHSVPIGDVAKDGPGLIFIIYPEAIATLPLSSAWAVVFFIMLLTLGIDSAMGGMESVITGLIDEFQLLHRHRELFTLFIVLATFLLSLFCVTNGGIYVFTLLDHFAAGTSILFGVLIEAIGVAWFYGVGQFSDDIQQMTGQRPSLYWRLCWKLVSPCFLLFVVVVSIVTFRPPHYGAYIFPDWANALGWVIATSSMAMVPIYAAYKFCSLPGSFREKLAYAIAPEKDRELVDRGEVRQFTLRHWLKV

NCCN1C(=O)c2ccccc2C1(O)c1ccc(Cl)cc1 (stereo not shown) [Mazindol Metabolite, 2-(2-Aminoethyl)-3-(p-chlorophenyl)-3-hydroxyphthalimidine]
percent inhibition of the binding of a radioactively labeled ligand (μ (MOP) (h); [2]): 87.9%
affinity for μ-opioid receptors (μ (MOP) (h); compared with amphetamines): higher affinity
affinity for κ-opioid receptors (k (KOP)): modest affinity
percent inhibition of the binding of a radioactively labeled ligand (k (KOP); [2]): 53.3%
percent inhibition of the binding of a radioactively labeled ligand (H1(h)): 75.5%
percent inhibition of the binding of a radioactively labeled ligand [1]: 100.2%
percent inhibition of the binding of a radioactively labeled ligand (5-HT transporter(h)): 98.5%
percent inhibition of the binding of a radioactively labeled ligand (Dopamine transporter(h)): 101%
percent inhibition of the binding of a radioactively labeled ligand (M1(h)): 50.4%
percent inhibition of the binding of a radioactively labeled ligand (5-HT1A(h)): 86.3%
